Experiments:
Test in all cases: X-ray crystal structure, […] Å
Assay type in all cases: binding
SrUGT76G1 [1] = biological target: T1, SrUGT76G1 (Stevia rebaudiana, UniProt Q6VAB4); conditions: donor site; crystals set up with UDP-xylose and Sb
T1 sequence (Q6VAB4 1-458): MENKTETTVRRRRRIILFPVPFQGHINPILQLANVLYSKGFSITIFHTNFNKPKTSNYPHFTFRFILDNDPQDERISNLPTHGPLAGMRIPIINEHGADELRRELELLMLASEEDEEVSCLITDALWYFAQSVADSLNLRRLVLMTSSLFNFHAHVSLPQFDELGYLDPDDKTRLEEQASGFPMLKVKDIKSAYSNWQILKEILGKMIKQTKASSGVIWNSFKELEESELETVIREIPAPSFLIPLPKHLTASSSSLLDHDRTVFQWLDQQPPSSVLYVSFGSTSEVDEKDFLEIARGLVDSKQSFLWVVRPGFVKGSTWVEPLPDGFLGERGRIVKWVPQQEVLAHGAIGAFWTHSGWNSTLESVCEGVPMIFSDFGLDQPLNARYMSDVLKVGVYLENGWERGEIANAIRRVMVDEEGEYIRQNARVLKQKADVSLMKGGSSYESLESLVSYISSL

SrUGT76G1 [2] = biological target: T1, SrUGT76G1; conditions: donor site; crystals set up with UDP-glucose
SrUGT76G1 [3] = biological target: T1, SrUGT76G1; conditions: complex with UDP (crystals set up with UDP-xylose); acceptor pocket

SMILES: O=c1ccn([C@@H]2O[C@H](COP(=O)(O)OP(=O)(O)O[C@H]3OC[C@@H](O)[C@H](O)[C@H]3O)[C@@H](O)[C@H]2O)c(=O)[nH]1 [UDP-xylose]
- X-ray crystal structure, 2.5 Å (SrUGT76G1 [1]): UDP-xylose (UDPX-SrUGT76G1)

SMILES: O=c1ccn([C@@H]2O[C@H](COP(=O)(O)OP(=O)(O)O)[C@@H](O)[C@H]2O)c(=O)[nH]1 [UDP]
- X-ray crystal structure, 2.6 Å (SrUGT76G1 [2]): we crystallized SrUGT76G1 complexed with UDP (UDP-SrUGT76G1)

SMILES: C=C1C[C@@]23CC[C@H]4[C@@](C)(CCC[C@@]4(C)C(=O)O)[C@@H]2CC[C@]1(O[C@@H]1O[C@H](CO)[C@@H](O)[C@H](O)[C@H]1O)C3 [steviolmonoside]
- X-ray crystal structure, 2.4 Å (SrUGT76G1 [3]): UDP and steviolmonoside (UDP-Sm-SrUGT76G1)

Source: PMC7747997 (Plant Communications, 2019)
